# Results: patent publication US10357481B2 (MERCK SHARP & DOHME CORP., priority 2015, dated 2019)
# Biological target: T1, human PDE2A1 (Homo sapiens, UniProt O00408)
# T1 construct: GST; purchased BPS Bioscience (San Diego, Calif.) 60020; host or cells: insect cells
# Test: IMAP FP PDE selectivity panel, human PDE2A1
# Type: biochemical
# Conditions: Lab B; read-out: Human PDE2 Ki (nM) Lab B
# Experimental: Selectivity for PDE2, as compared to other PDE families, was assessed using the IMAP® technology. Human PDE10A2 enzyme was prepared from cytosolic fractions of transiently transfected HEK cells.
# Assays for PDE 1 through 11 were performed in parallel at room temperature in 384-well microtiter plates with an incubation volume of 20.2 μL. Solutions of test compounds were prepared in DMSO and serially diluted with DMSO to yield 30 μL of each of ten solutions differing by 3-fold in concentration, at 32 serial dilutions per plate. […] A Labcyte POD 810 (Labcyte, Sunnyvale, Calif.) was used to dispense 200 nL from each well of the titration plate to make eleven copies of the assay plate for each titration, one copy for each PDE enzyme. A solution of each enzyme (dilution from aliquots, sufficient to produce 20% substrate conversion) and a separate solution of FAM-labeled cAMP or FAM-labeled cGMP from Molecular Devices (Sunnyvale, Calif., product # R7506 or cGMP#R7508), at a final concentration of 50 nM were made in the assay buffer (10 mM Tris HCl, pH 7.2, 10 mM MgCl2, 0.05% NaN3 0.01% Tween-20, and 1 mM DTT). Note that the substrate for PDE2 is 50 nM FAM cAMP containing 1000 nM of cGMP. The enzyme and the substrate were then added to the assay plates in two consecutive additions of 10 μL and then shaken to mix. The reaction was allowed to proceed at room temperature for 60 minutes. A binding solution was then made from the kit components, comprised of 80% Solution A, 20% Solution B and binding reagent at a volume of 1/600 the total binding solution. The enzymatic reaction was stopped by addition of 60 μL of the binding solution to each well of the assay plate. The plates were sealed and shaken for 10 seconds. The plates were incubated at room temperature for one hour, then the parallel and perpendicular fluorescence was measured using a Tecan Genios Pro plate reader (Tecan, Switzerland). […] The intrinsic PDE2 inhibitory activity of a compound which may be used in accordance with the present invention may be determined by these assays.
# T1 sequence (O00408 1-920 isoform O00408-2): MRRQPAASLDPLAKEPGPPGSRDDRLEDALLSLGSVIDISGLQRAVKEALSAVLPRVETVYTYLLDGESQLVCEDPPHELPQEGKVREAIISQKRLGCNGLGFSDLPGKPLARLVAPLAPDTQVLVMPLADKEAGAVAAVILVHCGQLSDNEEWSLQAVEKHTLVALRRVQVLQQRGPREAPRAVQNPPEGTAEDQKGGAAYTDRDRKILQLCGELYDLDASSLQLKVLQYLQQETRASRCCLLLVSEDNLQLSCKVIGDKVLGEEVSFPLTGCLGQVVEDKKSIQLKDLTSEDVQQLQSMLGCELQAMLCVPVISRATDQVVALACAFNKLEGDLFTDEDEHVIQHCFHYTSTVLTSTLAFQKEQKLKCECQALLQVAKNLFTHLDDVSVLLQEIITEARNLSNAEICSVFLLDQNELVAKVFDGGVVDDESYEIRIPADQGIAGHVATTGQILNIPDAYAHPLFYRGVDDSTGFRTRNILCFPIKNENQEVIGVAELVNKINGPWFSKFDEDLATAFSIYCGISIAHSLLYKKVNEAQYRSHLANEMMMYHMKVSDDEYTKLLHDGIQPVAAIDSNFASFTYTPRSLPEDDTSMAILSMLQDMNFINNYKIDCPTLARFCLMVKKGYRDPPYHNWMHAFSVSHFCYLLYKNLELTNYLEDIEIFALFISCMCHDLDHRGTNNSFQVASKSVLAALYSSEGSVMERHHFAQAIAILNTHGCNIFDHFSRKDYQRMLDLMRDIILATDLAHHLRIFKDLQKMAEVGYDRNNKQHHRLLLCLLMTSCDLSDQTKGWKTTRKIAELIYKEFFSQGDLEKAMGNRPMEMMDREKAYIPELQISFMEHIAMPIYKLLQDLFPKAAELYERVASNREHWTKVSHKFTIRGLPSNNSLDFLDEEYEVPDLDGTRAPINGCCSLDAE
row,Ki [nM],SMILES
1,> 2960,"CCC(O)(CC)C(Nc1cc(C)nc2ncnn12)c1ccc(C(F)(F)F)c(F)c1 (single isomer, unassigned) [Example 215, (R)- or (S)-3-((3-Fluoro-4-(trifluoromethyl)phenyl)(5-methyl-[1,2,4]triazolo [1,5-a]pyrimidin-7-ylamino)methyl) pentan-3-ol]"
2,173,"Cc1cc(N[C@H](C)c2ccc(C3(C)CC3)cc2)n2ncnc2n1 [Example 15, 5-Methyl-N-{(1R)-1-[4-(1-methylcyclopropyl)phenyl]ethyl} [1,2,4]triazolo[1,5-a]pyrimidin-7-amine]"
3,10,"CNc1nc2nc(C)cc(NC3(c4ccc(C(F)(F)F)c(F)c4)CC3)n2n1 [Example 257, N^7-{1-[3-Fluoro-4-(trifluoromethyl)phenyl]cyclopropyl}-N^2,5-dimethyl[1,2,4]triazolo[1,5-a]pyrimidine-2,7-diamine]"
4,> 2960,"CC(C)(O)C(Nc1cc(C(F)F)nc2ncnn12)c1ccc(OC(F)F)cc1F (single isomer, unassigned) [Example 182]"
5,> 2960,"Cc1cc(NC(c2ccc(OC(F)(F)F)c(F)c2)C(C)(C)O)n2nc(C)nc2n1 (single isomer, unassigned) [Example 132, (1S or R)-1-[(2,5-Dimethyl[1,2,4]triazolo[1,5-a]pyrimidin-7-yl)amino]-1-[3-fluoro-4-(trifluoromethoxy)phenyl]-2-methylpropan-2-ol]"
6,68,"CC(C)(O)C(Nc1cc(C(F)F)nc2ncnn12)c1ccc(OC(F)F)cc1Cl (single isomer, unassigned) [Example 184, (1R or S)-[2-Chloro-4-(difluoromethoxy)phenyl]-1-{[5-(difluoromethyl) [1,2,4]triazolo [1,5-a]pyrimidin-7-yl]amino}-2-methylpropan-2-ol]"
7,181,"CC[C@@H](Nc1cc(CO)cc2ncnn12)c1ccc(C(F)(F)F)c(F)c1 [Example 269, [5-({(1R)-1-[3-Fluoro-4-(trifluoromethyl)phenyl]propyl}amino)[1,2,4]triazolo [1,5-a]pyridin-7-yl] methanol]"
8,37,"CC(C)(O)C(Nc1cc(C2CC2)nc2ncnn12)c1ccc(C(F)(F)F)cc1 (stereo in doubt) [Example 157, (1S)-1-[(5-Cyclopropyl[1,2,4]triazolo[1,5-a]pyrimidin-7-yl)amino]-2-methyl-1-[4-(trifluoromethyl)phenyl]propan-2-ol]"
9,90,"FS(F)(F)(F)(F)c1ccc(C2(Nc3cncc4ncnn34)CC2)cc1 [Example 290, N-{1-[4-(Pentafluoro-λ^6-sulfanyl)phenyl]cyclopropyl} [1,2,4]triazolo[1,5-a]pyrazin-5-amine]"
10,14,"CC(C)(O)C(Nc1cc(C(F)(F)F)nc2ncnn12)c1ccc(OC(F)(F)F)c(F)c1 (single isomer, unassigned) [Example 175, (1S or R)-1-[3-Fluoro-4-(trifluoromethoxy)phenyl]-2-methyl-1-{[5-(trifluoromethyl) [1,2,4]triazolo [1,5-a]pyrimidin-7-yl]amino} propan-2-ol]"
11,2290,"Cc1cc(N[C@@H](c2ccc(F)c(OC(F)(F)F)c2)C(C)(C)O)n2ncnc2n1 [Example 130, (1S)-1-[4-Fluoro-3-(trifluoro-methoxy)phenyl]-2-methyl-1-[(5-methyl[1,2,4]triazolo[1,5-a]pyrimidin-7-yl)amino]propan-2-ol]"
12,> 2960,"Cc1cc(NC(c2cc3ccccc3n2C)C(C)(C)O)n2ncnc2n1 (single isomer, unassigned) [Example 125, (1R or S)-2-Methyl-1-(1-methyl-1H-indol-2-yl)-1-[(5-methyl [1,2,4]triazolo [1,5-a]pyrimidin-7-yl)amino] propan-2-ol]"
13,91,"Cc1cc(NC2(c3ccc(C(F)(F)F)c(F)c3)CC2)n2nc(C)nc2n1 [Example 192, N-(1-(3-Fluoro-4-(trifluoromethyl)phenyl)cyclopropyl)-2,5-dimethyl-[1,2,4]triazolo [1,5-a]pyrimidin-7-amine]"
14,482,"Cc1cc(N[C@H](C)c2cc(F)c(C(F)(F)F)cc2F)n2ncnc2n1 [Example 6, N-{(1R)-1-[2,5-Difluoro-4-(trifluoromethyl)phenyl]ethyl}-5-methyl[1,2,4]triazolo[1,5-a] pyrimidin-7-amine]"
15,> 2960,"CC(C)c1cc(NC(c2ccc(OC(F)(F)F)c(F)c2)C(C)(C)O)n2ncnc2n1 (single isomer, unassigned) [Example 139, (1R or S)-1-[3-Fluoro-4-(trifluoro-methoxy)phenyl]-2-methyl-1-{[5-(1-methylethyl) [1,2,4]triazolo [1,5-a]pyrimidin-7-yl]amino} propan-2-ol]"
16,18,"Cc1cc(N[C@H](C)c2ccc(SC(F)(F)F)c(F)c2)n2ncnc2n1 [Example 11, N-[(1R)-1-{3-Fluoro-4-[(trifluoromethyl)sulfanyl]phenyl}ethyl]-5-methyl[1,2,4]triazolo [1,5-a]pyrimidin-7-amine]"
17,> 2960,"CC(C)(O)C(Nc1cc(C(F)(F)F)nc2ncnn12)c1ccc(C(F)F)cc1 (single isomer, unassigned) [Example 164, (1R or S)-1-[4-(Difluoromethyl)phenyl]-2-methyl-1-{[5-(trifluoromethyl) [1,2,4]triazolo [1,5-a]pyrimidin-7-yl]amino} propan-2-ol]"
18,301,"Cc1cc(NC(C)(C)c2ccc(OC(F)(F)F)cc2)n2ncnc2n1 [Example 49, 5-Methyl-N-{1-methyl-1-[4-(trifluoromethoxy)phenyl]ethyl} [1,2,4]triazolo[1,5-a]pyrimidin-7-amine]"
19,17,"CCCc1nc2nc(C)cc(N[C@@H](c3ccc(C(F)(F)F)c(F)c3)C(C)(C)C)n2n1 [Example 204, (R)-N-(1-(3-Fluoro-4-(trifluoromethyl)phenyl)-2,2-dimethylpropyl)-5-methyl-2-propyl-[1,2,4]triazolo [1,5-a]pyrimidin-7-amine]"
20,20,"CC(C)(O)[C@@H](Nc1cc(C(F)F)cc2ncnn12)c1ccc(C(F)(F)F)cc1 [Example 280, (1S)-1-{[7-(Difluoromethyl) [1,2,4]triazolo[1,5-a]pyridin-5-yl]amino}-1-[4-(trifluoromethyl)phenyl]-2-methylpropan-2-ol]"
21,18,"COc1cc(NC2(c3ccc(C(F)(F)F)c(F)c3)CC2)n2ncnc2n1 [Example 235, N-(1-(3-Fluoro-4-(trifluoromethyl)phenyl)cyclopropyl)-5-methoxy-[1,2,4]triazolo [1,5-a]pyrimidin-7-amine]"
22,211,"Cc1cc(NC(C)(C)c2ccc(SC(F)(F)F)cc2)n2ncnc2n1 [Example 55, 5-Methyl-N-(1-methyl-1-{4-[(trifluoromethyl)sulfanyl]phenyl}ethyl)[1,2,4]triazolo[1,5-a] pyrimidin-7-amine]"
23,> 2960,"Cc1cc(NC(c2ccc(C(F)(F)F)cc2F)C(C)(C)O)n2ncnc2n1 (single isomer, unassigned) [Example 114, (1S or R)-1-[2-Fluoro-4-(trifluoromethyl)phenyl]-2-methyl-1-[(5-methyl [1,2,4]triazolo [1,5-a]pyrimidin-7-yl)amino] propan-2-ol]"
24,111,"CC(O)c1cc(NC2(c3ccc(C(F)(F)F)c(F)c3)CC2)n2ncnc2c1 (stereo not shown) [Example 275, 1-(5-((1-(3-Fluoro-4-(trifluoromethyl)phenyl)cyclopropyl)amino)-[1,2,4]triazolo[1,5-a]pyridin-7-yl)ethanol]"
25,11,"Cc1cc(NC(c2ccc(C3(C)CC3)cc2)C(C)(C)O)n2ncnc2n1 (single isomer, unassigned) [Example 121, (1R or S)-2-Methyl-1-[4-(1-methyl-cyclopropyl)phenyl]-1-[(5-methyl[1,2,4]triazolo[1,5-a]pyrimidin-7-yl)amino]propan-2-ol]"
26,905,"Cc1cc(NC(c2ccc(C(F)F)cc2)C(C)(C)O)n2ncnc2n1 (single isomer, unassigned) [Example 109, (1R or S)-1-[4-(Difluoromethyl)phenyl]-2-methyl-1-[(5-methyl [1,2,4]triazolo [1,5-a]pyrimidin-7-yl)amino] propan-2-ol]"
27,4.4,"Cc1cc(N[C@@H](c2ccc(C3CC3)cc2)C(C)(C)C)n2ncnc2n1 [Example 30, N-[(1R)-1-(4-Cyclopropyl-phenyl)-2,2-dimethylpropyl]-5-methyl[1,2,4]triazolo[1,5-a] pyrimidin-7-amine]"
28,113,"CCCc1nc2nc(C)cc(NC3(c4ccc(C(F)(F)F)c(F)c4)CC3)n2n1 [Example 194, N-(1-(3-Fluoro-4-(trifluoromethyl)phenyl)cyclopropyl)-5-methyl-2-propyl-[1,2,4]triazolo [1,5-a]pyrimidin-7-amine]"
